# Measured values published in US20260262643A1, “HERBICIDAL BENZOXAZINES” (FMC CORPORATION, priority 2022, published 2026).
# How the values were obtained:
# [1] = tested on: blackgrass; assay: Test C preemergence; assay type: in vivo, Alopecurus myosuroides; conditions: 0 to 100 scale (0 no effect, 100 complete control); for Plant response rating, Blackgrass: Preemergence, 500 g ai/ha, visual rating after 10 days; for Blackgrass plant response rating: Test C, preemergence, 125 g ai/ha
# How it was run: (§1)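 Pre: seeds in loam/sand, directed soil spray. Post: 1–2 leaf plants, 2–10 cm. Cmpd in non-phytotoxic solvent + surfactant. Greenhouse 10 d; visual rating vs untreated, 0 = none, 100 = complete control.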
# [2] = tested on: green foxtail; assay: Test C postemergence; assay type: in vivo, Setaria viridis; conditions: 10 days
# How it was run: as §1
# [3] = tested on: corn; assay: Test C postemergence; assay type: in vivo, Zea mays; conditions: 10 days
# How it was run: as §1
# [4] = tested on: rice; assay: Test D flooded paddy test; assay type: in vivo, Oryza sativa; conditions: 250 g ai/ha, applied to paddy water, visual rating after 13 to 14 days, scale 0 to 100 (0 no effect, 100 complete control)
# How it was run: (§2)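 Visual ratings from 0, meaning no effect, to 100, meaning complete control, were assigned against untreated controls 13 to 14 days after compounds were added to the floodwater of pots kept 3 cm deep, with plants at the 2-leaf stage.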
# [5] = tested on: pigweed, palmer; assay: Test C preemergence; assay type: in vivo, Amaranthus palmeri; conditions: 0 to 100 scale (0 no effect, 100 complete control); for Plant response rating, Pigweed, Palmer: Preemergence, 500 g ai/ha, visual rating after 10 days; for Pigweed, Palmer plant response rating: Test C, preemergence, 125 g ai/ha
# How it was run: as §1
# [6] = tested on: ragweed; assay: Test C preemergence; assay type: in vivo, Ambrosia artemisiifolia; conditions: 0 to 100 scale (0 no effect, 100 complete control); for Plant response rating, Ragweed: Preemergence, 500 g ai/ha, visual rating after 10 days; for Ragweed plant response rating: Test C, preemergence, 125 g ai/ha
# How it was run: as §1
# [7] = tested on: oat, wild; assay: Test C preemergence; assay type: in vivo, Avena fatua; conditions: 0 to 100 scale (0 no effect, 100 complete control); for Plant response rating, Oat, Wild: Preemergence, 500 g ai/ha, visual rating after 10 days
# How it was run: as §1
# [8] = tested on: wheat; assay: Test C preemergence; assay type: in vivo, Triticum aestivum; conditions: 0 to 100 scale (0 no effect, 100 complete control); for Plant response rating, Wheat: Preemergence, 500 g ai/ha, visual rating after 10 days; for Wheat plant response rating: Test C, preemergence, 125 g ai/ha
# How it was run: as §1
# [9] = tested on: soybean; assay: Test C preemergence; assay type: in vivo, Glycine max; conditions: 0 to 100 scale (0 no effect, 100 complete control); for Plant response rating, Soybean: Preemergence, 500 g ai/ha, visual rating after 10 days; for Soybean plant response rating: Test C, preemergence, 125 g ai/ha
# How it was run: as §1
# [10] = tested on: horseweed; assay: Test C postemergence; assay type: in vivo, Erigeron canadensis; conditions: 10 days
# How it was run: as §1
# [11] = tested on: oat, wild; assay: Test C postemergence; assay type: in vivo, Avena fatua; conditions: 10 days
# How it was run: as §1
# [12] = tested on: ryegrass, Italian; assay: Test C postemergence; assay type: in vivo, Lolium multiflorum; conditions: 10 days
# How it was run: as §1
# [13] = tested on: green foxtail; assay: Test C preemergence; assay type: in vivo, Setaria viridis; conditions: 0 to 100 scale (0 no effect, 100 complete control); for Plant response rating, Foxtail, Green: Preemergence, 500 g ai/ha, visual rating after 10 days; for Foxtail, Green plant response rating: Test C, preemergence, 125 g ai/ha
# How it was run: as §1
# [14] = tested on: ryegrass, Italian; assay: Test C preemergence; assay type: in vivo, Lolium multiflorum; conditions: 0 to 100 scale (0 no effect, 100 complete control); for Plant response rating, Ryegrass, Italian: Preemergence, 500 g ai/ha, visual rating after 10 days; for Ryegrass, Italian plant response rating: Test C, preemergence, 125 g ai/ha
# How it was run: as §1
# [15] = tested on: barnyardgrass; assay: Test C postemergence; assay type: in vivo, Echinochloa crusgalli; conditions: 10 days
# How it was run: as §1
# [16] = tested on: ducksalad; assay: Test D flooded paddy test; assay type: in vivo, Heteranthera limosa; conditions: 250 g ai/ha, applied to paddy water, visual rating after 13 to 14 days, scale 0 to 100 (0 no effect, 100 complete control)
# How it was run: as §2
# [17] = tested on: kochia; assay: Test C postemergence; assay type: in vivo, Bassia scoparia; conditions: 10 days
# How it was run: as §1
# [18] = tested on: corn; assay: Test C preemergence; assay type: in vivo, Zea mays; conditions: 0 to 100 scale (0 no effect, 100 complete control); for Plant response rating, Corn: Preemergence, 500 g ai/ha, visual rating after 10 days; for Corn plant response rating: Test C, preemergence, 125 g ai/ha
# How it was run: as §1
# [19] = tested on: pigweed, palmer; assay: Test C postemergence; assay type: in vivo, Amaranthus palmeri; conditions: 10 days
# How it was run: as §1
# [20] = tested on: ragweed; assay: Test C postemergence; assay type: in vivo, Ambrosia artemisiifolia; conditions: 10 days
# How it was run: as §1
# [21] = tested on: sedge, umbrella; assay: Test D flooded paddy test; assay type: in vivo, Cyperus difformis; conditions: 250 g ai/ha, applied to paddy water, visual rating after 13 to 14 days, scale 0 to 100 (0 no effect, 100 complete control)
# How it was run: as §2
# [22] = tested on: barnyardgrass; assay: Test D flooded paddy test; assay type: in vivo, Echinochloa crus-galli; conditions: 250 g ai/ha, applied to paddy water, visual rating after 13 to 14 days, scale 0 to 100 (0 no effect, 100 complete control)
# How it was run: as §2
# [23] = tested on: soybean; assay: Test C postemergence; assay type: in vivo, Glycine max; conditions: 10 days
# How it was run: as §1
# [24] = tested on: barnyardgrass; assay: Test C preemergence; assay type: in vivo, Echinochloa crusgalli; conditions: 0 to 100 scale (0 no effect, 100 complete control); for Plant response rating, Barnyardgrass: Preemergence, 500 g ai/ha, visual rating after 10 days; for Barnyardgrass plant response rating: Test C, preemergence, 125 g ai/ha
# How it was run: as §1
# [25] = tested on: kochia; assay: Test C preemergence; assay type: in vivo, Bassia scoparia; conditions: 0 to 100 scale (0 no effect, 100 complete control); for Plant response rating, Kochia: Preemergence, 500 g ai/ha, visual rating after 10 days; for Kochia plant response rating: Test C, preemergence, 125 g ai/ha
# How it was run: as §1
# [26] = tested on: wheat; assay: Test C postemergence; assay type: in vivo, Triticum aestivum; conditions: 10 days
# How it was run: as §1
# [27] = tested on: blackgrass; assay: Test C postemergence; assay type: in vivo, Alopecurus myosuroides; conditions: 10 days
# How it was run: as §1
# [28] = 125 g ai/ha, postemergence, 0 to 100 scale, 0 no effect, 100 complete control
# [29] = Postemergence, 500 g ai/ha, visual 0 to 100 scale (0 no effect, 100 complete control)
smiles,measurement,setting,value
COc1cc(C(=O)N2C[C@H](C)Oc3c(Cl)cccc32)cc(-n2cnc(C(C)C)n2)c1 [Compound 212],"Plant response rating, Blackgrass",[1],90
same,Blackgrass plant response rating,[1],60
same,"Plant response rating, Foxtail, Green",[2]; [28],80
same,"Plant response rating, Foxtail, Green",[2]; [29],90
same,"Plant response rating, Corn",[3]; [28],20
same,"Plant response rating, Corn",[3]; [29],90
same,"Plant response rating, Rice (Flood)",[4],40
same,"Plant response rating, Pigweed, Palmer",[5],100
same,"Pigweed, Palmer plant response rating",[5],100
same,"Plant response rating, Ragweed",[6],50
same,Ragweed plant response rating,[6],0
same,"Plant response rating, Oat, Wild",[7],90
same,"Oat, Wild plant response rating","[7]; Test C, preemergence, 125 g ai/ha",70
same,"Plant response rating, Wheat",[8],30
same,Wheat plant response rating,[8],40
same,"Plant response rating, Soybean",[9],100
same,Soybean plant response rating,[9],90
same,"Plant response rating, Horseweed",[10]; [28],0
same,"Plant response rating, Horseweed",[10]; [29],50
same,"Plant response rating, Oat, Wild",[11]; [28],40
same,"Plant response rating, Oat, Wild",[11]; [29],80
same,"Plant response rating, Ryegrass, Italian",[12]; [28],50
same,"Plant response rating, Ryegrass, Italian",[12]; [29],70
same,"Plant response rating, Foxtail, Green",[13],100
same,"Foxtail, Green plant response rating",[13],100
same,"Plant response rating, Ryegrass, Italian",[14],100
same,"Ryegrass, Italian plant response rating",[14],90
same,"Plant response rating, Barnyardgrass",[15]; [28],30
same,"Plant response rating, Barnyardgrass",[15]; [29],50
same,"Plant response rating, Ducksalad (Flood)",[16],95
same,"Plant response rating, Kochia",[17]; [28],80
same,"Plant response rating, Kochia",[17]; [29],90
same,"Plant response rating, Corn",[18],70
same,Corn plant response rating,[18],20
same,"Plant response rating, Pigweed, Palmer",[19]; [28],90
same,"Plant response rating, Pigweed, Palmer",[19]; [29],90
same,"Plant response rating, Ragweed",[20]; [28],20
same,"Plant response rating, Ragweed",[20]; [29],70
same,"Plant response rating, Sedge, Umbrella (Flood)",[21],98
same,"Plant response rating, Barnyardgrass (Flood)",[22],25
same,"Plant response rating, Soybean",[23]; [28],100
same,"Plant response rating, Soybean",[23]; [29],100
same,"Plant response rating, Barnyardgrass",[24],100
same,Barnyardgrass plant response rating,[24],80
same,"Plant response rating, Kochia",[25],90
same,Kochia plant response rating,[25],90
same,"Plant response rating, Wheat",[26]; [28],20
same,"Plant response rating, Wheat",[26]; [29],80
same,"Plant response rating, Blackgrass",[27]; [28],50
same,"Plant response rating, Blackgrass",[27]; [29],100
C[C@H]1CN(C(=O)c2cccc(-c3ncccn3)c2)c2cccc(Cl)c2O1 [Compound 203],"Plant response rating, Blackgrass",[1],0
same,Blackgrass plant response rating,[1],0
same,"Plant response rating, Foxtail, Green",[2]; [28],0
same,"Plant response rating, Foxtail, Green",[2]; [29],10
same,"Plant response rating, Corn",[3]; [28],0
same,"Plant response rating, Corn",[3]; [29],10
same,"Plant response rating, Rice (Flood)",[4],0
same,"Plant response rating, Pigweed, Palmer",[5],70
same,"Pigweed, Palmer plant response rating",[5],20
same,"Plant response rating, Ragweed",[6],0
same,Ragweed plant response rating,[6],0
same,"Plant response rating, Oat, Wild",[7],0
same,"Plant response rating, Wheat",[8],0
same,Wheat plant response rating,[8],0
same,"Plant response rating, Soybean",[9],0
same,Soybean plant response rating,[9],0
same,"Plant response rating, Horseweed",[10]; [28],0
same,"Plant response rating, Horseweed",[10]; [29],0
same,"Plant response rating, Oat, Wild",[11]; [28],0
same,"Plant response rating, Oat, Wild",[11]; [29],10
same,"Plant response rating, Ryegrass, Italian",[12]; [28],0
same,"Plant response rating, Ryegrass, Italian",[12]; [29],0
same,"Plant response rating, Foxtail, Green",[13],60
same,"Foxtail, Green plant response rating",[13],20
same,"Plant response rating, Ryegrass, Italian",[14],20
same,"Ryegrass, Italian plant response rating",[14],0
same,"Plant response rating, Barnyardgrass",[15]; [28],0
same,"Plant response rating, Barnyardgrass",[15]; [29],0
same,"Plant response rating, Ducksalad (Flood)",[16],0
same,"Plant response rating, Kochia",[17]; [28],0
same,"Plant response rating, Kochia",[17]; [29],40
same,"Plant response rating, Corn",[18],0
same,Corn plant response rating,[18],0
same,"Plant response rating, Pigweed, Palmer",[19]; [28],0
same,"Plant response rating, Pigweed, Palmer",[19]; [29],40
same,"Plant response rating, Ragweed",[20]; [28],0
same,"Plant response rating, Ragweed",[20]; [29],20
same,"Plant response rating, Sedge, Umbrella (Flood)",[21],0
same,"Plant response rating, Barnyardgrass (Flood)",[22],0
same,"Plant response rating, Soybean",[23]; [28],100
same,"Plant response rating, Soybean",[23]; [29],100
same,"Plant response rating, Barnyardgrass",[24],0
same,Barnyardgrass plant response rating,[24],0
same,"Plant response rating, Kochia",[25],30
same,Kochia plant response rating,[25],0
same,"Plant response rating, Wheat",[26]; [28],0
same,"Plant response rating, Wheat",[26]; [29],10
same,"Plant response rating, Blackgrass",[27]; [28],0
same,"Plant response rating, Blackgrass",[27]; [29],0
